This passage reports melting point results from US6528538B1, “Cyclic compounds useful in the treatment of dyslipidaemia, atherosclerosis and diabetes, pharamaceutical compositions and preparation process” (Merck Patentgesellschaft, priority 1998, dated 2003).

A word on the melting point: it is the temperature, or range, at which the solid turns liquid. Take `CCOC(=O)C1(c2ccc(Cl)cc2)OCC2(CCC2)CO1`: the melting point was found to be 117 °C.
`O=C(O)C1OCC2(CCC2c2ccc(Cl)cc2)CO1` (stereo not drawn) yielded a melting point of 171 °C.
For `O=C(O)C1OCC2(CO1)c1ccccc1-c1ccccc12` the value was 158 to 160 °C.
